ChEMBL document CHEMBL1154382, “Preliminary SAR analysis of novel antiproliferative N(6),5'-bis-ureidoadenosine derivatives” (2009)
Calls of active or inactive are those of the source.

How the values were obtained:
Format in all cases: functional
HCC 2998 = test: Antiproliferative activity against human HCC2998 cells at 10 uM assessed as cell growth inhibition relative to control
786-0 = test: Antiproliferative activity against human 786-0 cells at 10 uM assessed as cell growth inhibition relative to control
HOP-62 = test: Antiproliferative activity against human HOP62 cells at 10 uM assessed as cell growth inhibition relative to control
RXF 393 = test: Antiproliferative activity against human RXF393 cells at 10 uM assessed as cell growth inhibition relative to control
UACC-62 = test: Antiproliferative activity against human UACC62 cells at 10 uM assessed as cell growth inhibition relative to control
CAKI-1 = test: Antiproliferative activity against human Caki1 cells at 10 uM assessed as cell growth inhibition relative to control
HCT-116 = test: Antiproliferative activity against human HCT116 cells at 10 uM assessed as cell growth inhibition relative to control
MCF7 = test: Antiproliferative activity against human MCF7 cells at 10 uM assessed as cell growth inhibition relative to control
RPMI8266 = test: Antiproliferative activity against human […] cells at 10 uM assessed as cell growth inhibition relative to control
SW-620 = test: Antiproliferative activity against human SW620 cells at 10 uM assessed as cell growth inhibition relative to control
HOP-92 = test: Antiproliferative activity against human HOP92 cells at 10 uM assessed as cell growth inhibition relative to control
OVCAR-5 = test: Antiproliferative activity against human OVCAR5 cells at 10 uM assessed as cell growth inhibition relative to control
KM12 = test: Antiproliferative activity against human KM12 cells at 10 uM assessed as cell growth inhibition relative to control
LOX IMVI = test: Antiproliferative activity against human LOXIMVI cells at 10 uM assessed as cell growth inhibition relative to control
SF-539 = test: Antiproliferative activity against human SF539 cells at 10 uM assessed as cell growth inhibition relative to control
MDA-MB-468 = test: Antiproliferative activity against human MDA-MB-468 cells at 10 uM assessed as cell growth inhibition relative to control
SK-MEL-5 = test: Antiproliferative activity against human SK-MEL-5 cells at 10 uM assessed as cell growth inhibition relative to control
NCI-H522 = test: Antiproliferative activity against human NCI-H522 cells at 10 uM assessed as cell growth inhibition relative to control
U-251 = test: Antiproliferative activity against human U251 cells at 10 uM assessed as cell growth inhibition relative to control
SNB-75 = test: Antiproliferative activity against human SNB75 cells at 10 uM assessed as cell growth inhibition relative to control
SK-OV-3 = test: Antiproliferative activity against human SKOV3 cells at 10 uM assessed as cell growth inhibition relative to control
TK-10 = test: Antiproliferative activity against human TK10 cells at 10 uM assessed as cell growth inhibition relative to control
OVCAR-4 = test: Antiproliferative activity against human OVCAR4 cells at 10 uM assessed as cell growth inhibition relative to control
T47D = test: Antiproliferative activity against human T47D cells at 10 uM assessed as cell growth inhibition relative to control
Malme-3M = test: Antiproliferative activity against human MALME-3M cells at 10 uM assessed as cell growth inhibition relative to control
SF-268 = test: Antiproliferative activity against human SF268 cells at 10 uM assessed as cell growth inhibition relative to control
NCI-H23 = test: Antiproliferative activity against human NCI-H23 cells at 10 uM assessed as cell growth inhibition relative to control
SF-295 = test: Antiproliferative activity against human SF295 cells at 10 uM assessed as cell growth inhibition relative to control
UACC-257 = test: Antiproliferative activity against human UACC257 cells at 10 uM assessed as cell growth inhibition relative to control
HT-29 = test: Antiproliferative activity against human HT-29 cells at 10 uM assessed as cell growth inhibition relative to control
SNB-19 = test: Antiproliferative activity against human SNB19 cells at 10 uM assessed as cell growth inhibition relative to control
IGROV-1 = test: Antiproliferative activity against human IGROV1 cells at 10 uM assessed as cell growth inhibition relative to control
SK-MEL-28 = test: Antiproliferative activity against human SK-MEL-28 cells at 10 uM assessed as cell growth inhibition relative to control
DU-145 = test: Antiproliferative activity against human DU145 cells at 10 uM assessed as cell growth inhibition relative to control
CCRF-CEM = test: Antiproliferative activity against human CCRF-CEM cells at 10 uM assessed as cell growth inhibition relative to control
PC-3 = test: Antiproliferative activity against human PC3 cells at 10 uM assessed as cell growth inhibition relative to control
MOLT-4 = test: Antiproliferative activity against human MOLT4 cells at 10 uM assessed as cell growth inhibition relative to control
A498 = test: Antiproliferative activity against human A498 cells at 10 uM assessed as cell growth inhibition relative to control
MDA-MB-231 = test: Antiproliferative activity against human MDA-MB-231 cells at 10 uM assessed as cell growth inhibition relative to control
M14 = test: Antiproliferative activity against human M14 cells at 10 uM assessed as cell growth inhibition relative to control
Hs-578T = test: Antiproliferative activity against human Hs 578T cells at 10 uM assessed as cell growth inhibition relative to control
COLO 205 = test: Antiproliferative activity against human COLO205 cells at 10 uM assessed as cell growth inhibition relative to control
NCI-H460 = test: Antiproliferative activity against human NCI-H460 cells at 10 uM assessed as cell growth inhibition relative to control
NCI-H322M = test: Antiproliferative activity against human NCI-H322M cells at 10 uM assessed as cell growth inhibition relative to control
EKVX = test: Antiproliferative activity against human EKVX cells at 10 uM assessed as cell growth inhibition relative to control
BT-549 = test: Antiproliferative activity against human BT549 cells at 10 uM assessed as cell growth inhibition relative to control
ACHN = test: Antiproliferative activity against human ACHN cells at 10 uM assessed as cell growth inhibition relative to control
OVCAR-3 = test: Antiproliferative activity against human OVCAR-3 cells at 10 uM assessed as cell growth inhibition relative to control
SN12C = test: Antiproliferative activity against human SN12C cells at 10 uM assessed as cell growth inhibition relative to control
SK-MEL-2 = test: Antiproliferative activity against human SK-MEL-2 cells at 10 uM assessed as cell growth inhibition relative to control
NCI-H226 = test: Antiproliferative activity against human NCI-H226 cells at 10 uM assessed as cell growth inhibition relative to control
OVCAR-8 = test: Antiproliferative activity against human OVCAR8 cells at 10 uM assessed as cell growth inhibition relative to control
UO-31 = test: Antiproliferative activity against human UO31 cells at 10 uM assessed as cell growth inhibition relative to control
K562 = test: Antiproliferative activity against human K562 cells at 10 uM assessed as cell growth inhibition relative to control
A549 = test: Antiproliferative activity against human A549 cells at 10 uM assessed as cell growth inhibition relative to control
HL-60(TB) = test: Antiproliferative activity against human HL-60(TB) cells at 10 uM assessed as cell growth inhibition relative to control
HCT-15 = test: Antiproliferative activity against human HCT15 cells at 10 uM assessed as cell growth inhibition relative to control

Measured: growth inhibition (GI)

CNC(=O)NC[C@H]1O[C@@H](n2cnc3c(NC(=O)Nc4ccccc4)ncnc32)[C@H](O)[C@@H]1O
inactive: all assays above
